Earlier results in patent US10548837B1, “Topical montelukast for treatment of atopic dermatitis” (TARO PHARMACEUTICAL INDUSTRIES LTD., priority 2016, dated 2020).

Target: T1, cysLT1 receptor (Homo sapiens, UniProt Q9Y271)
T1 sequence (Q9Y271 1-337): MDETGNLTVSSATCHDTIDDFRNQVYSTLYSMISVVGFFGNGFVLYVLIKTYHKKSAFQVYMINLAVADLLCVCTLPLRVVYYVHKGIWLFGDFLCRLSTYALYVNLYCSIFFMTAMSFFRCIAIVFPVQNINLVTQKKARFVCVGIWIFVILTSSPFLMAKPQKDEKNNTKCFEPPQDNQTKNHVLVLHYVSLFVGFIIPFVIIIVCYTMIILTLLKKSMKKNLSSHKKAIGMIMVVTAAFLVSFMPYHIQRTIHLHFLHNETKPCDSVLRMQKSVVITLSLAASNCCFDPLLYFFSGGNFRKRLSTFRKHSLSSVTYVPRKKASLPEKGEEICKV
Conditions: background statement

binding to the cysLT1 receptor: high-affinity binding
Compound: COc1cc(C(=O)NS(=O)(=O)c2ccccc2C)ccc1Cc1cn(C)c2ccc(NC(=O)OC3CCCC3)cc12 [zafirlukast]
